Experimental data as given in ChEMBL document CHEMBL3745627, “A Methylene Group on C-2 of 24,24-Difluoro-19-nor-1α,25-dihydroxyvitamin D3 Markedly Increases Bone Calcium Mobilization in Vivo” (J Med Chem, 2015).

Experiments:
Rattus norvegicus [1] = test: Induction of bone mobilization activity in weaning Sprague-Dawley rat assessed as increase in serum calcium level at 16 pmol, ip for 4 consecutive dose at an interval of 24 hrs measured 24 hrs after last dose (reference value: 4.4 to 4.5 mg/dl); type: functional
Rattus norvegicus [2] = test: Induction of bone mobilization activity in weaning Sprague-Dawley rat assessed as increase in serum calcium level at 87 pmol, ip for 4 consecutive dose at an interval of 24 hrs measured 24 hrs after last dose (reference value: 4.4 to 4.5 mg/dl); type: functional
Rattus norvegicus [3] = test: Induction of bone mobilization activity in weaning Sprague-Dawley rat assessed as increase in serum calcium level at 780 pmol, ip for 4 consecutive dose at an interval of 24 hrs measured 24 hrs after last dose (reference value: 4.4 to 4.5 mg/dl); type: functional
Vitamin D3 receptor = target: T1, Vitamin D3 receptor (Rattus norvegicus, UniProt P13053); test: Displacement of [3H]1alpha,25-(OH)2D3 from full-length recombinant rat VDR by scintillation counter
T1 sequence (P13053 whole entry): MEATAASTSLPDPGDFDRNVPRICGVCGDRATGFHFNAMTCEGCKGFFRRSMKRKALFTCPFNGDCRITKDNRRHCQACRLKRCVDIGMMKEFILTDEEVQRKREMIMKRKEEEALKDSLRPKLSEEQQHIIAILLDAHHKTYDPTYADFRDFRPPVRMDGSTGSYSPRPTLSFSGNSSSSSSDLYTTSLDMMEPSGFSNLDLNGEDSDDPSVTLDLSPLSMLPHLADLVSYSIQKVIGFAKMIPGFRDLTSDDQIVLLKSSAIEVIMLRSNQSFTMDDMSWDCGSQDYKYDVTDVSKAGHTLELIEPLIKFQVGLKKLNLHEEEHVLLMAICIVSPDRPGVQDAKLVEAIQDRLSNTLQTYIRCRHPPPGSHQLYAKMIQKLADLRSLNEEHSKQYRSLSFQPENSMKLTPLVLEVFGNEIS

HL-60 [4] = test: Induction of human HL60 cell differentiation assessed as differentiation from promyelocytes to monocytes by NBT assay; type: functional; settings: read-out: ED50 (the source's name)
HL-60 [5] = test: Potency index, ratio ED50 of 1alpha,25-(OH)2D3 to ED50 of compound for induction of human HL60 cell differentiation; type: functional
[6] = target: T2, Vitamin D3 receptor (Rattus norvegicus) (UniProt P13053); test: Transactivation of VDR in rat osteosarcoma cells assessed as 24-hydroxylase transcriptional activity by luciferase reporter gene assay; type: cell-based
T2 sequence (whole entry): T1 sequence (P13053 whole entry)

Rattus norvegicus [7] = test: Induction of bone mobilization activity in weaning Sprague-Dawley rat assessed as increase in serum calcium level at 260 pmol, ip for 4 consecutive dose at an interval of 24 hrs measured 24 hrs after last dose (reference value: 4.4 to 4.5 mg/dl); type: functional
Rattus norvegicus [8] = test: Induction of intestinal calcium transport in weaning Sprague-Dawley rat assessed as ratio of calcium level in serosal to mucosal at 16 pmol, ip for 4 consecutive dose at an interval of 24 hrs measured 24 hrs after last dose (reference value: 3.7 to 4.8); type: functional
Rattus norvegicus [9] = test: Induction of intestinal calcium transport in weaning Sprague-Dawley rat assessed as ratio of calcium level in serosal to mucosal at 780 pmol, ip for 4 consecutive dose at an interval of 24 hrs measured 24 hrs after last dose (reference value: 3.7 to 4.8); type: functional
Rattus norvegicus [10] = test: Induction of intestinal calcium transport in weaning Sprague-Dawley rat assessed as ratio of calcium level in serosal to mucosal at 260 pmol, ip for 4 consecutive dose at an interval of 24 hrs measured 24 hrs after last dose (reference value: 3.7 to 4.8); type: functional
Rattus norvegicus [11] = test: Induction of bone mobilization activity in weaning Sprague-Dawley rat assessed as increase in serum calcium level at 32 pmol, ip for 4 consecutive dose at an interval of 24 hrs measured 24 hrs after last dose (reference value: 4.4 to 4.5 mg/dl); type: functional
Rattus norvegicus [12] = test: Induction of intestinal calcium transport in weaning Sprague-Dawley rat assessed as ratio of calcium level in serosal to mucosal at 32 pmol, ip for 4 consecutive dose at an interval of 24 hrs measured 24 hrs after last dose (reference value: 3.7 to 4.8); type: functional

Row | Structure (SMILES) | Activity (Rattus norvegicus [1]) [mg/dL] | Activity (Rattus norvegicus [2]) [mg/dL] | Activity (Rattus norvegicus [3]) [mg/dL] | Ki (Vitamin D3 receptor) [pM] | EC50 (HL-60 [4]) [pM] | Ratio ED50 (HL-60 [5]) | ED50 [6] [pM] | Activity (Rattus norvegicus [7]) [mg/dL] | Ratio (Rattus norvegicus [8]) | Ratio (Rattus norvegicus [9]) | Ratio (Rattus norvegicus [10]) | Activity (Rattus norvegicus [11]) [mg/dL] | Ratio (Rattus norvegicus [12])
1 | C=C1/C(=C\C=C2/CCC[C@]3(C)[C@@H]([C@H](C)CCCC(C)(C)O)CC[C@@H]23)C[C@@H](O)C[C@@H]1O [CALCITRIOL] | 5.3 | 6.6 | 7.6 |  |  |  |  |  |  |  |  |  | 
2 | C=C1[C@H](O)CC(=C/C=C2\CCC[C@]3(C)[C@@H]([C@@H](C)CCC(F)(F)C(C)(C)O)CC[C@@H]23)C[C@H]1O | 5.8 |  | 9.8 | 30 | 30 | 100 | 20 | 9.5 | 6.6 | 8.7 | 12.4 |  | 
3 | C=C1[C@H](O)CC(=C/C=C2\CCC[C@]3(C)[C@@H]([C@H](C)CCC(F)(F)C(C)(C)O)CC[C@@H]23)C[C@H]1O |  |  | 11.2 | 40 | 100 | 30 | 10 | 9.4 |  | 16.4 | 11.6 | 6 | 11.7
4 | C[C@@H](CCC(F)(F)C(C)(C)O)[C@H]1CC[C@H]2/C(=C/C=C3C[C@@H](O)C[C@H](O)C3)CCC[C@]12C | 5.8 |  | 9.8 | 30 | 60 | 50 | 40 | 8.5 | 6.6 | 11.5 | 8.8 |  | 
5 | C=C1[C@H](O)CC(=C/C=C2\CCC[C@]3(C)[C@@H]([C@H](C)CCCC(C)(C)O)CC[C@@H]23)C[C@H]1O |  |  |  | 30 | 20 | 150 | 7 |  |  |  |  |  | 
6 | C[C@H](CCC(F)(F)C(C)(C)O)[C@H]1CC[C@H]2/C(=C/C=C3C[C@@H](O)C[C@H](O)C3)CCC[C@]12C |  |  | 5.9 | 20 | 50 | 60 | 40 | 4.9 |  | 7.7 | 6.9 | 4.9 | 9.4
